In patent EP0908457B1, “3-(1,2-benzisothiazol- and isoxazol-5-Y1)-2,4(1H,3H)-pyrimidinedione or thione and 3-(1,2-benzisothiazol- and isoxazol-5-y1)-4(3H)-pyrimidinone or thione herbicidal agents” (BASF AKTIENGESELLSCHAFT, priority 1997, dated 1999):

What was measured:
Type in all cases: in vivo
[1] = system: Echinochloa oryzoides (Ard.) Fritsch.; assay: Preemergence weed control under flooded paddy conditions, ECHORC (Watergrass (Calif.)); details: preemergence, flooded paddy, rated three to four weeks after treatment
Cyperus iria = assay: Preemergence weed control under flooded paddy conditions, CYPIR (Rice Flatsedge); details: preemergence, flooded paddy, rated three to four weeks after treatment
[2] = system: Cyperus serotinus, Rottb.; assay: Preemergence weed control under flooded paddy conditions, CYPSE (Flatsedge); details: preemergence, rated three to four weeks after treatment
[3] = system: Monochoria vaginalis, Presl.; assay: Preemergence weed control under flooded paddy conditions, MOOVA (Monochoria); details: preemergence, flooded paddy, rated three to four weeks after treatment
Sagittaria pygmaea, L. = assay: Preemergence weed control under flooded paddy conditions, SAGPY (Arrowhead (Pygmaea)); details: preemergence, flooded paddy, rated three to four weeks after treatment
Further: meaning of each grade not given here.

SMILES: C#CCC(c1nsc2ccc(-n3c(=O)cc(C(F)(F)F)n(C)c3=O)cc12)S(C)(=O)=O (stereo not drawn) [Example 603, 2,4(1H,3H)-Pyrimidinedione, 1-methyl-3-{3-[1-(methylsulfonyl)-3-butynyl]-1,2-benzisothiazol-5-yl}-6-(trifluoromethyl)-]
- herbicidal effect rating, ECHORC ([1]; Rate 0.0320 kg/ha): 0.0
- herbicidal effect rating, ECHORC ([1]; Rate 0.0620 kg/ha): 4.0
- herbicidal effect rating, ECHORC ([1]; Rate 0.1250 kg/ha): 6.0
- herbicidal effect rating, ECHORC ([1]; Rate 0.2500 kg/ha): 8.0
- herbicidal effect rating, CYPIR (Cyperus iria; Rate 0.0320 kg/ha): 5.0
- herbicidal effect rating, CYPIR (Cyperus iria; Rate 0.1250 kg/ha): 6.0
- herbicidal effect rating, CYPIR (Cyperus iria; Rate 0.2500 kg/ha): 7.0
- herbicidal effect rating, CYPSE ([2]; Rate 0.0320 kg/ha): 0.0
- herbicidal effect rating, CYPSE ([2]; Rate 0.1250 kg/ha): 8.0
- herbicidal effect rating, CYPSE ([2]; Rate 0.2500 kg/ha): 9.0
- herbicidal effect rating, MOOVA ([3]; Rate 0.0320 kg/ha): 7.0
- herbicidal effect rating, MOOVA ([3]; Rate 0.0620 kg/ha): 7.0
- herbicidal effect rating, MOOVA ([3]; Rate 0.1250 kg/ha): 9.0
- herbicidal effect rating, MOOVA ([3]; Rate 0.2500 kg/ha): 9.0
- herbicidal effect rating, SAGPY (Sagittaria pygmaea, L.; Rate 0.0320 kg/ha): 0.0
- herbicidal effect rating, SAGPY (Sagittaria pygmaea, L.; Rate 0.0620 kg/ha): 0.0
- herbicidal effect rating, SAGPY (Sagittaria pygmaea, L.; Rate 0.1250 kg/ha): 2.0
- herbicidal effect rating, SAGPY (Sagittaria pygmaea, L.; Rate 0.2500 kg/ha): 4.0

SMILES: Cn1c(C(F)(F)F)cc(=O)n(-c2ccc3snc(C(Cc4ccccc4)S(C)(=O)=O)c3c2)c1=O (stereo not drawn) [Example 604, 2,4(1H,3H)-Pyrimidinedione, 1-methyl-3-{3-[alpha(methylsulfonyl)phenethyl]-1,2-benzisothiazol-5-yl}-6-(trifluoromethyl)-]
- herbicidal effect rating, ECHORC ([1]; Rate 0.0320 kg/ha): 7.0
- herbicidal effect rating, ECHORC ([1]; Rate 0.0620 kg/ha): 7.0
- herbicidal effect rating, ECHORC ([1]; Rate 0.1250 kg/ha): 7.0
- herbicidal effect rating, ECHORC ([1]; Rate 0.2500 kg/ha): 9.0
- herbicidal effect rating, CYPIR (Cyperus iria; Rate 0.0320 kg/ha): 0.0
- herbicidal effect rating, CYPIR (Cyperus iria; Rate 0.0620 kg/ha): 3.0
- herbicidal effect rating, CYPIR (Cyperus iria; Rate 0.1250 kg/ha): 4.0
- herbicidal effect rating, CYPIR (Cyperus iria; Rate 0.2500 kg/ha): 6.0
- herbicidal effect rating, CYPSE ([2]; Rate 0.0320 kg/ha): 0.0
- herbicidal effect rating, CYPSE ([2]; Rate 0.0620 kg/ha): 0.0
- herbicidal effect rating, CYPSE ([2]; Rate 0.1250 kg/ha): 0.0
- herbicidal effect rating, CYPSE ([2]; Rate 0.2500 kg/ha): 0.0
- herbicidal effect rating, MOOVA ([3]; Rate 0.0320 kg/ha): 5.0
- herbicidal effect rating, MOOVA ([3]; Rate 0.0620 kg/ha): 6.0
- herbicidal effect rating, MOOVA ([3]; Rate 0.1250 kg/ha): 7.0
- herbicidal effect rating, MOOVA ([3]; Rate 0.2500 kg/ha): 8.0
- herbicidal effect rating, SAGPY (Sagittaria pygmaea, L.; Rate 0.0320 kg/ha): 0.0
- herbicidal effect rating, SAGPY (Sagittaria pygmaea, L.; Rate 0.0620 kg/ha): 0.0
- herbicidal effect rating, SAGPY (Sagittaria pygmaea, L.; Rate 0.1250 kg/ha): 0.0
- herbicidal effect rating, SAGPY (Sagittaria pygmaea, L.; Rate 0.2500 kg/ha): 0.0

SMILES: Cn1c(C(F)(F)F)cc(=O)n(-c2ccc3snc(C(C#N)=Cc4ccccc4F)c3c2)c1=O [Example 605, 1,2-Benzisothiazole-3-acetonitrile, 5-[3,6-dihydro-3-methyl-2,6-dioxo-4-(trifluoromethyl)-1(2H)-pyrimidinyl]-alpha-(o-fluorobenzylidene)-]
- herbicidal effect rating, ECHORC ([1]; Rate 0.0320 kg/ha): 4.0
- herbicidal effect rating, ECHORC ([1]; Rate 0.0620 kg/ha): 4.0
- herbicidal effect rating, ECHORC ([1]; Rate 0.1250 kg/ha): 7.0
- herbicidal effect rating, ECHORC ([1]; Rate 0.2500 kg/ha): 7.0
- herbicidal effect rating, CYPIR (Cyperus iria; Rate 0.0320 kg/ha): 1.0
- herbicidal effect rating, CYPIR (Cyperus iria; Rate 0.0620 kg/ha): 3.0
- herbicidal effect rating, CYPIR (Cyperus iria; Rate 0.1250 kg/ha): 7.0
- herbicidal effect rating, CYPIR (Cyperus iria; Rate 0.2500 kg/ha): 7.0
- herbicidal effect rating, CYPSE ([2]; Rate 0.0320 kg/ha): 0.0
- herbicidal effect rating, CYPSE ([2]; Rate 0.0620 kg/ha): 0.0
- herbicidal effect rating, CYPSE ([2]; Rate 0.1250 kg/ha): 0.0
- herbicidal effect rating, CYPSE ([2]; Rate 0.2500 kg/ha): 0.0
- herbicidal effect rating, MOOVA ([3]; Rate 0.0320 kg/ha): 9.0
- herbicidal effect rating, MOOVA ([3]; Rate 0.0620 kg/ha): 9.0
- herbicidal effect rating, MOOVA ([3]; Rate 0.1250 kg/ha): 9.0
- herbicidal effect rating, MOOVA ([3]; Rate 0.2500 kg/ha): 9.0
- herbicidal effect rating, SAGPY (Sagittaria pygmaea, L.; Rate 0.0320 kg/ha): 4.0
- herbicidal effect rating, SAGPY (Sagittaria pygmaea, L.; Rate 0.0620 kg/ha): 4.0
- herbicidal effect rating, SAGPY (Sagittaria pygmaea, L.; Rate 0.1250 kg/ha): 5.0
- herbicidal effect rating, SAGPY (Sagittaria pygmaea, L.; Rate 0.2500 kg/ha): 7.0

SMILES: Cn1c(C(F)(F)F)cc(=O)n(-c2ccc3snc(C(C#N)=Cc4ccccc4C#N)c3c2)c1=O [Example 606, 1,2-Benzisothiazole-3-acetonitrile, alpha-(o-cyanobenzylidene)-5-[3,6-dihydro-3-methyl-2,6-dioxo-4-(trifluoromethyl)-1(2H)-pyrimidinyl]-, (E)- and (Z)-]
- herbicidal effect rating, ECHORC ([1]; Rate 0.0320 kg/ha): 5.0
- herbicidal effect rating, ECHORC ([1]; Rate 0.0620 kg/ha): 5.0
- herbicidal effect rating, ECHORC ([1]; Rate 0.1250 kg/ha): 5.0
- herbicidal effect rating, ECHORC ([1]; Rate 0.2500 kg/ha): 6.0
- herbicidal effect rating, CYPIR (Cyperus iria; Rate 0.0320 kg/ha): 4.0
- herbicidal effect rating, CYPIR (Cyperus iria; Rate 0.0620 kg/ha): 6.0
- herbicidal effect rating, CYPIR (Cyperus iria; Rate 0.1250 kg/ha): 6.0
- herbicidal effect rating, CYPIR (Cyperus iria; Rate 0.2500 kg/ha): 9.0
- herbicidal effect rating, CYPSE ([2]; Rate 0.0320 kg/ha): 0.0
- herbicidal effect rating, CYPSE ([2]; Rate 0.0620 kg/ha): 2.0
- herbicidal effect rating, CYPSE ([2]; Rate 0.1250 kg/ha): 2.0
- herbicidal effect rating, CYPSE ([2]; Rate 0.2500 kg/ha): 2.0
- herbicidal effect rating, MOOVA ([3]; Rate 0.0320 kg/ha): 6.0
- herbicidal effect rating, MOOVA ([3]; Rate 0.0620 kg/ha): 7.0
- herbicidal effect rating, MOOVA ([3]; Rate 0.1250 kg/ha): 7.0
- herbicidal effect rating, MOOVA ([3]; Rate 0.2500 kg/ha): 9.0
- herbicidal effect rating, SAGPY (Sagittaria pygmaea, L.; Rate 0.0320 kg/ha): 0.0
- herbicidal effect rating, SAGPY (Sagittaria pygmaea, L.; Rate 0.1250 kg/ha): 3.0
- herbicidal effect rating, SAGPY (Sagittaria pygmaea, L.; Rate 0.2500 kg/ha): 4.0

SMILES: Cn1c(C(F)(F)F)cc(=O)n(-c2ccc3snc(C(C#N)=CC4CCCC4)c3c2)c1=O [Example 607, 1,2-Benzisothiazole-3-acetonitrile, alpha(cyclopentylmethylene)-5-[3,6-dihydro-3-methyl-2,6-dioxo-4-(trifluoromethyl)-1(2H)-pyrimidinyl]-, (E)- and (Z)-]
- herbicidal effect rating, ECHORC ([1]; Rate 0.0320 kg/ha): 4.0
- herbicidal effect rating, ECHORC ([1]; Rate 0.0620 kg/ha): 7.0
- herbicidal effect rating, ECHORC ([1]; Rate 0.1250 kg/ha): 9.0
- herbicidal effect rating, ECHORC ([1]; Rate 0.2500 kg/ha): 9.0
- herbicidal effect rating, CYPIR (Cyperus iria; Rate 0.0320 kg/ha): 0.0
- herbicidal effect rating, CYPIR (Cyperus iria; Rate 0.0620 kg/ha): 2.0
- herbicidal effect rating, CYPIR (Cyperus iria; Rate 0.1250 kg/ha): 5.0
- herbicidal effect rating, CYPIR (Cyperus iria; Rate 0.2500 kg/ha): 5.0
- herbicidal effect rating, CYPSE ([2]; Rate 0.0620 kg/ha): 0.0
- herbicidal effect rating, CYPSE ([2]; Rate 0.1250 kg/ha): 0.0
- herbicidal effect rating, CYPSE ([2]; Rate 0.2500 kg/ha): 0.0
- herbicidal effect rating, MOOVA ([3]; Rate 0.0320 kg/ha): 6.0
- herbicidal effect rating, MOOVA ([3]; Rate 0.0620 kg/ha): 7.0
- herbicidal effect rating, MOOVA ([3]; Rate 0.1250 kg/ha): 9.0
- herbicidal effect rating, MOOVA ([3]; Rate 0.2500 kg/ha): 9.0
- herbicidal effect rating, SAGPY (Sagittaria pygmaea, L.; Rate 0.0320 kg/ha): 0.0
- herbicidal effect rating, SAGPY (Sagittaria pygmaea, L.; Rate 0.0620 kg/ha): 0.0
- herbicidal effect rating, SAGPY (Sagittaria pygmaea, L.; Rate 0.1250 kg/ha): 0.0
- herbicidal effect rating, SAGPY (Sagittaria pygmaea, L.; Rate 0.2500 kg/ha): 3.0
